{"source": "patent US20210040153A1", "about": "“OLIGOPEPTIDE HAVING DENGUE VIRUS REPLICATION INHIBITION FUNCTION AND APPLICATION THEREOF” (priority 2018, published 2021)", "key": {"NS5": {"target": "T1, NS5 (Dengue virus type 2, UniProt P14340)", "T1 construct": "His6 (C); made in house; host or cells: E. coli BL21 (DE3), pET 30a/NS5", "assay": "affinity to full-length DENV NS5 recombinant protein (phage display peptide library screening)", "format": "binding, DENV-2", "experimental": "1) The protein solution is diluted with 0.1 M NaHCO3 to 100 μg/mL. Each time, 0.7 mL of the protein solution is added dropwise to a (φ35 mm polyethylene culture dish, which is gently shaken to soak the dish, which is then coated overnight at 4° C., The coating solution is aspirated and discarded; 2 mL of a blocking solution is added, and left at 4° C. for 2 h; the blocking solution is discarded, and the plate is tap-dried; the plate is washed 6 times with TBST (TBS+0,1%[V/V]Tween−20), and tap-dried each time. […]\n3) The eluted phage is added to 10 mL of the host bacterial Tet-LB culture solution (OD600 to 0.5) and then amplified; after 5 hours of culture, the culture solution is collected to purify the phage, and used for the next round of screening after the titer is measured. […]"}, "DENV 2": {"test_system": "DENV 2", "assay": "cell poisoning experiments: inhibition of DENV 2 replication", "format": "cell-based, dengue virus"}, "dengue virus type 1": {"test_system": "dengue virus type 1", "assay": "inhibition of replication of dengue virus type 1", "format": "cell-based"}, "dengue virus type 3": {"test_system": "dengue virus type 3", "assay": "inhibition of replication of dengue virus type 3", "format": "cell-based"}, "dengue virus type 4": {"test_system": "dengue virus type 4", "assay": "inhibition of replication of dengue virus type 4", "format": "cell-based"}, "dengue virus": {"test_system": "dengue virus", "assay": "inhibition of dengue virus replication (serotype not given)", "format": "cell-based", "conditions": "serotype not stated"}}}
{"substance": "KHGHHRH [Lys-His-Gly-His-His-Arg-His]", "values": [{"measurement": "affinity for NS5", "setting": "NS5", "value": "high specific affinity"}, {"measurement": "inhibitory effect on the replication of DENV 2 virus", "setting": "DENV 2", "value": "significant inhibitory effect"}, {"measurement": "inhibitory effect on the replication of dengue virus type 1", "setting": "dengue virus type 1", "value": "significant inhibitory effect"}, {"measurement": "inhibitory effect on the replication of dengue virus type 3", "setting": "dengue virus type 3", "value": "significant inhibitory effect"}, {"measurement": "inhibitory effect on the replication of dengue virus type 4", "setting": "dengue virus type 4", "value": "significant inhibitory effect"}, {"measurement": "inhibitory effect on dengue virus replication", "setting": "dengue virus", "value": "highly effective inhibitory effect"}, {"measurement": "inhibitory effect on dengue virus replication", "setting": "dengue virus; listed as oligopeptide", "value": "effectively inhibit"}]}
